Data as given in the NIST ThermoML archive (doi:10.1016/j.jct.2016.09.026).

Experiments:
[1] = Crystal
[2] = Molar enthalpy of transition or fusion; details: Crystal; DSC
[3] = molar heat capacity at constant pressure; details: 101.33 kPa, Crystal, Small sample (50 mg) DSC
[4] = molar enthalpy of vaporization or sublimation; details: 381.12 K; Crystal; Static calorimetry

CCC(=O)c1ccc(O)cc1 [1-(4-hydroxyphenyl)-1-propanone]
Details	mass density [kg/m3]
[1], 298 K, 101.33 kPa, X-ray diffraction	1273.1

Details	Normal melting temperature [°C]	molar heat capacity at constant pressure [J/K/mol]
[1], DTA	148.5	–
[3], 288.66 K	–	188.2
[3], 289.98 K	–	188.2
[3], 291.28 K	–	189.2
[3], 292.55 K	–	189.9
[3], 293.82 K	–	190.1
[3], 295.08 K	–	191.4
[3], 296.34 K	–	192.1
[3], 297.6 K	–	192.7
[3], 298.85 K	–	192.9
[3], 300.11 K	–	193.6
[3], 301.36 K	–	194.5
[3], 302.61 K	–	195.3
[3], 303.87 K	–	196.9
[3], 305.13 K	–	197.5
[3], 306.38 K	–	198.3
[3], 307.64 K	–	198.5
[3], 308.89 K	–	199.3
[3], 310.14 K	–	199.8
[3], 311.39 K	–	201
[3], 312.64 K	–	201.7
[3], 313.9 K	–	202.7
[3], 315.15 K	–	203.5
[3], 316.4 K	–	203.9
[3], 317.65 K	–	204.9
[3], 318.9 K	–	204.9
[3], 320.15 K	–	206.1
[3], 321.41 K	–	206.9
[3], 322.66 K	–	207.6
[3], 323.91 K	–	208.3
[3], 325.16 K	–	209.1
[3], 326.41 K	–	209.8
[3], 327.66 K	–	210.5
[3], 328.91 K	–	211.5
[3], 330.16 K	–	212
[3], 331.41 K	–	212.6
[3], 332.66 K	–	213.6
[3], 333.91 K	–	214.1
[3], 335.16 K	–	215
[3], 336.41 K	–	216.1
[3], 337.66 K	–	216.6
[3], 338.91 K	–	217.2
[3], 340.16 K	–	217.3
[3], 341.41 K	–	218.3
[3], 342.66 K	–	219.2
[3], 343.91 K	–	220.2
[3], 345.16 K	–	220.7
[3], 346.41 K	–	222
[3], 347.66 K	–	222.2
[3], 348.91 K	–	223.1
[3], 350.15 K	–	223.8
[3], 351.4 K	–	225
[3], 352.65 K	–	225.9
[3], 353.9 K	–	226.5
[3], 355.15 K	–	226.9
[3], 356.4 K	–	227.5
[3], 357.65 K	–	228.2
[3], 358.9 K	–	228.9
[3], 360.15 K	–	229.6
[3], 361.4 K	–	230.9
[3], 362.65 K	–	231.4
[3], 363.9 K	–	232.2
[3], 365.15 K	–	232.7
[3], 366.39 K	–	233.5
[3], 367.65 K	–	235.1
[3], 368.9 K	–	235.7
[3], 370.15 K	–	236.6
[3], 371.4 K	–	237.2
[3], 372.65 K	–	237.9
[3], 373.9 K	–	238.7
[3], 375.15 K	–	239.3
[3], 376.4 K	–	240.8
[3], 377.64 K	–	241.3
[3], 378.89 K	–	242.4
[3], 380.14 K	–	243.1
[3], 381.39 K	–	243.7
[3], 382.64 K	–	244.3
[3], 383.89 K	–	245.9

Details	Molar enthalpy of transition or fusion [kcal/mol]	molar enthalpy [kcal/mol]
[2]	7.56	–
[4]	–	26.87
